Here are results for 27 molecules from US20240217978A1 (CHONG KUN DANG PHARMACEUTICAL CORP., priority 2021, published 2024).

This experiment deals with human adenosine A2a receptor (Homo sapiens (Human), UniProt P29274). Nature of the experiment: A2a receptor binding affinity, [3H]-NECA radioligand binding test. Particulars: [3H]-NECA 37 nM; membrane from HEK-293 cells transfected with human adenosine A2a receptor. The procedure, abridged: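 Membranes from HEK-293 cells expressing human A2a receptor were incubated with [3H]-NECA (final 37 nM) and compound for 1 h at room temperature in 50 mM Tris, 10 mM MgCl2, 1 mM EDTA, pH 7.4. Bound ligand was filtered on PEI-coated plates and counted by scintillation to derive IC50 (μM).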
Sequence of human adenosine A2a receptor (P29274 whole entry): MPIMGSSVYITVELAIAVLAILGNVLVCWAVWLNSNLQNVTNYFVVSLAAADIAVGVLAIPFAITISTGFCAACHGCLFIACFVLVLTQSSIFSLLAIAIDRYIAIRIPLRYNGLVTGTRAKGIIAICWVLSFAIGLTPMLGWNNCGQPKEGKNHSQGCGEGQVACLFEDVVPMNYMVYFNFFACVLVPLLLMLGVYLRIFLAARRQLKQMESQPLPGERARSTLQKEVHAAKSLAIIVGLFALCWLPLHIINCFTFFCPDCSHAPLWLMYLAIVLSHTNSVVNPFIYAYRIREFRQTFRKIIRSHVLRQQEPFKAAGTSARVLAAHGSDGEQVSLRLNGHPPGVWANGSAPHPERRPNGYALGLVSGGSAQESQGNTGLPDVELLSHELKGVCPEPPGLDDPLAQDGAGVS
Regarding `C[C@@H]1CN(C(=O)c2ccccc2)CCN1C(=O)[C@@H]1CCCN1c1nc(N)n2nc(-c3ccco3)nc2n1` [Example 159, ((R)-4-((7-amino-2-(furan-2-yl)-[1,2,4]triazolo[1,5-a][1,3,5]triazin-5-yl)-L-prolyl)-3-methylpiperazin-1-yl)(phenyl)methanone], the IC50 was 9 nM.
With `Nc1nc(N2CCC[C@H]2C(=O)N2CC3(CCN(C(=O)c4ccccc4)CC3)C2)nc2nc(-c3ccco3)nn12` [Example 160, (2-((7-amino-2-(furan-2-yl)-[1,2,4]triazolo[1,5-a][1,3,5]triazin-5-yl)-L-prolyl)-2,7-diazaspiro[3.5]nonan-7-yl)(phenyl)methanone] the figure was 4 nM; with `Nc1nc(N2CCC[C@H]2C(=O)N2CCC(C3CCN(C(=O)c4ccccc4)CC3)CC2)nc2nc(-c3ccco3)nn12` [Example 161, (1′-((7-amino-2-(furan-2-yl)-[1,2,4]triazolo[1,5-a][1,3,5]triazin-5-yl)-L-prolyl)-[4,4′-bipiperidin]-1-yl)(phenyl)methanone], 9 nM; with `CC[C@H](Nc1nc(N)n2nc(-c3ccco3)nc2n1)C(=O)N1CCN(c2ccc(F)cc2F)CC1` [Example 162, (S)-2-((7-amino-2-(furan-2-yl)-[1,2,4]triazolo[1,5-a][1,3,5]triazin-5-yl)amino)-1-(4-(2,4-difluorophenyl)piperazin-1-yl)butan-1-one], 8 nM.
Then `CCC[C@H](Nc1nc(N)n2nc(-c3ccco3)nc2n1)C(=O)N1CCN(c2ccc(F)cc2F)CC1` [Example 163, (S)-2-((7-amino-2-(furan-2-yl)-[1,2,4]triazolo[1,5-a][1,3,5]triazin-5-yl)amino)-1-(4-(2,4-difluorophenyl)piperazin-1-yl)pentan-1-one], with 0.5 nM; and `CCCC[C@H](Nc1nc(N)n2nc(-c3ccco3)nc2n1)C(=O)N1CCN(c2ccc(F)cc2F)CC1` [Example 164, (S)-2-((7-amino-2-(furan-2-yl)-[1,2,4]triazolo[1,5-a][1,3,5]triazin-5-yl)amino)-1-(4-(2,4-difluorophenyl)piperazin-1-yl)hexan-1-one], with 0.3 nM.
Then `CC(C)(C)[C@H](Nc1nc(N)n2nc(-c3ccco3)nc2n1)C(=O)N1CCN(c2ccc(F)cc2F)CC1` [Example 165, (S)-2-((7-amino-2-(furan-2-yl)-[1,2,4]triazolo[1,5-a][1,3,5]triazin-5-yl)amino)-1-(4-(2,4-difluorophenyl)piperazin-1-yl)-3,3-dimethylbutan-1-one], with 0.6 nM; and `CCC(C)[C@H](Nc1nc(N)n2nc(-c3ccco3)nc2n1)C(=O)N1CCN(c2ccc(F)cc2F)CC1` (stereo partly drawn) [Example 166, (2S)-2-((7-amino-2-(furan-2-yl)-[1,2,4]triazolo[1,5-a][1,3,5]triazin-5-yl)amino)-1-(4-(2,4-difluorophenyl)piperazin-1-yl)-3-methylpentan-1-one], with 0.08 nM; and `CC(C)C[C@H](Nc1nc(N)n2nc(-c3ccco3)nc2n1)C(=O)N1CCN(c2ccc(F)cc2F)CC1` [Example 167, (S)-2-((7-amino-2-(furan-2-yl)-[1,2,4]triazolo[1,5-a][1,3,5]triazin-5-yl)amino)-1-(4-(2,4-difluorophenyl)piperazin-1-yl)-4-methylpentan-1-one], with 0.2 nM.
As for `Nc1nc(N[C@H](C(=O)N2CCN(c3ccc(F)cc3F)CC2)C2CC2)nc2nc(-c3ccco3)nn12` [Example 168, (S)-2-((7-amino-2-(furan-2-yl)-[1,2,4]triazolo[1,5-a][1,3,5]triazin-5-yl)amino)-2-cyclopropyl-1-(4-(2,4-difluorophenyl)piperazin-1-yl)ethan-1-one], the half-inhibitory concentration (IC50) worked out at 4 nM.
With `Nc1nc(N[C@H](C(=O)N2CCN(c3ccc(F)cc3F)CC2)C2CCC2)nc2nc(-c3ccco3)nn12` [Example 169, (S)-2-((7-amino-2-(furan-2-yl)-[1,2,4]triazolo[1,5-a][1,3,5]triazin-5-yl)amino)-2-cyclobutyl-1-(4-(2,4-difluorophenyl)piperazin-1-yl)ethan-1-one] the figure was 0.1 nM; with `Nc1nc(N[C@H](C(=O)N2CCN(c3ccc(F)cc3F)CC2)C2CCCC2)nc2nc(-c3ccco3)nn12` [Example 170, (S)-2-((7-amino-2-(furan-2-yl)-[1,2,4]triazolo[1,5-a][1,3,5]triazin-5-yl)amino)-2-cyclopentyl-1-(4-(2,4-difluorophenyl)piperazin-1-yl)ethan-1-one], 1 nM; with `Nc1nc(N[C@H](C(=O)N2CCN(c3ccc(F)cc3F)CC2)C2CCOCC2)nc2nc(-c3ccco3)nn12` [Example 171, (S)-2-((7-amino-2-(furan-2-yl)-[1,2,4]triazolo[1,5-a][1,3,5]triazin-5-yl)amino)-1-(4-(2,4-difluorophenyl)piperazin-1-yl)-2-(tetrahydro-2H-pyran-4-yl)ethan-1-one], 3 nM.
In turn, `CCCCN1CCN(C(=O)[C@H](CC)Nc2nc(N)n3nc(-c4ccco4)nc3n2)CC1` [Example 172, (S)-2-((7-amino-2-(furan-2-yl)-[1,2,4]triazolo[1,5-a][1,3,5]triazin-5-yl)amino)-1-(4-butylpiperazin-1-yl)butan-1-one] gave an IC50 of 13 nM.
With `CCCC[C@H](Nc1nc(N)n2nc(-c3ccco3)nc2n1)C(=O)N1CCN(CCCC)CC1` [Example 173, (S)-2-((7-amino-2-(furan-2-yl)-[1,2,4]triazolo[1,5-a][1,3,5]triazin-5-yl)amino)-1-(4-butylpiperazin-1-yl)hexan-1-one] the figure was 16 nM; with `CCCCN1CCN(C(=O)[C@H](CC(C)C)Nc2nc(N)n3nc(-c4ccco4)nc3n2)CC1` [Example 175, (S)-2-((7-amino-2-(furan-2-yl)-[1,2,4]triazolo[1,5-a][1,3,5]triazin-5-yl)amino)-1-(4-butylpiperazin-1-yl)-4-methylpentan-1-one], 12 nM.
With `CCCCN1CCN(C(=O)[C@@H](Nc2nc(N)n3nc(-c4ccco4)nc3n2)C2CC2)CC1` [Example 176, (S)-2-((7-amino-2-(furan-2-yl)-[1,2,4]triazolo[1,5-a][1,3,5]triazin-5-yl)amino)-1-(4-butylpiperazin-1-yl)-2-cyclopropylethan-1-one], the IC50 turned out to be 16 nM.
As for `CCCCN1CCN(C(=O)[C@@H](Nc2nc(N)n3nc(-c4ccco4)nc3n2)C2CCC2)CC1` [Example 177, (S)-2-((7-amino-2-(furan-2-yl)-[1,2,4]triazolo[1,5-a][1,3,5]triazin-5-yl)amino)-1-(4-butylpiperazin-1-yl)-2-cyclobutylethan-1-one], the IC50 was 20 nM.
With `CCCCN1CCN(C(=O)[C@@H](Nc2nc(N)n3nc(-c4ccco4)nc3n2)C2CCCC2)CC1` [Example 178, (S)-2-((7-amino-2-(furan-2-yl)-[1,2,4]triazolo[1,5-a][1,3,5]triazin-5-yl)amino)-1-(4-butylpiperazin-1-yl)-2-cyclopentylethan-1-one] the figure was 10 nM; with `Nc1nc(N2CCC[C@H]2C(=O)N2CC3CCC(C2)N3C(=O)Nc2ccccc2)nc2nc(-c3ccco3)nn12` [Example 179, 3-((7-amino-2-(furan-2-yl)-[1,2,4]triazolo[1,5-a][1,3,5]triazin-5-yl)-L-prolyl)-N-phenyl-3,8-diazabicyclo[3.2.1]octane-8-carboxamide], 5 nM.
Then `Nc1nc(N2CCC[C@H]2C(=O)N2C3CCC2CN(C(=O)Nc2ccccc2)C3)nc2nc(-c3ccco3)nn12` [Example 180, 8-((7-amino-2-(furan-2-yl)-[1,2,4]triazolo[1,5-a][1,3,5]triazin-5-yl)-L-prolyl)-N-phenyl-3,8-diazabicyclo[3.2.1]octane-3-carboxamide], with 7 nM; and `C[C@H]1CN(C(=O)Nc2ccccc2)CCN1C(=O)[C@@H]1CCCN1c1nc(N)n2nc(-c3ccco3)nc2n1` [Example 181, (S)-4-((7-amino-2-(furan-2-yl)-[1,2,4]triazolo [1,5-a][1,3,5]triazine-5-yl)-L-prolyl)-3-methyl-N-phenylpiperazin-1-carboxamide], with 11 nM.
Take `C[C@@H]1CN(C(=O)Nc2ccccc2)CCN1C(=O)[C@@H]1CCCN1c1nc(N)n2nc(-c3ccco3)nc2n1` [Example 182, (R)-4-((7-amino-2-(furan-2-yl)-[1,2,4]triazolo[1,5-a][1,3,5]triazine-5-yl)-L-prolyl)-3-methyl-N-phenylpiperazin-1-carboxamide]: the IC50 was determined as 8 nM.
With `Nc1nc(N2CCC[C@H]2C(=O)N2CCC3(CC2)CN(C(=O)Nc2ccccc2)C3)nc2nc(-c3ccco3)nn12` [Example 183, 7-((7-amino-2-(furan-2-yl)-[1,2,4]triazolo[1,5-a][1,3,5]triazin-5-yl)-L-prolyl)-N-phenyl-2,7-diazaspiro[3.5]nonane-2-carboxamide] the figure was 2 nM; with `Nc1nc(N2CCC[C@H]2C(=O)N2CCC(C3CCN(C(=O)Nc4ccccc4)CC3)CC2)nc2nc(-c3ccco3)nn12` [Example 184, 1′-((7-amino-2-(furan-2-yl)-[1,2,4]triazolo[1,5-a][1,3,5]triazin-5-yl)-L-prolyl)-N-phenyl-[4,4′-bipiperidine]-1-carboxamide], 12 nM; with `CCC(O)(CC)CN1CCN(C(=O)[C@@H](Nc2nc(N)n3nc(-c4ccco4)nc3n2)C2CCCCC2)CC1` [Example 185, (S)-2-((7-amino-2-(furan-2-yl)-[1,2,4]triazolo[1,5-a][1,3,5]triazin-5-yl)amino)-2-cyclohexyl-1-(4-(2-ethyl-2-hydroxybutyl)piperazin-1-yl)ethan-1-one], 3 nM.
With `Nc1nc(N[C@H](C(=O)N2CCC(N3CC(F)(F)C3)CC2)C2CCCCC2)nc2nc(-c3ccco3)nn12` [Example 186, (S)-2-((7-amino-2-(furan-2-yl)-[1,2,4]triazolo[1,5-a][1,3,5]triazin-5-yl)amino)-2-cyclohexyl-1-(4-(3,3-difluoroazetidin-1-yl)piperidin-1-yl)ethan-1-one] the figure was 9 nM.
